Reference: ChEMBL document CHEMBL6071160, “Identification of a novel 10-hydroxyevodiamine prodrug as a potent topoisomerase inhibitor with improved aqueous solubility for treatment of hepatocellular carcinoma” (Eur J Med Chem, 2024)
Active and inactive are the calls of the source. The rule behind the calls is not given here.

What was measured:
[1] = Toxicity in BALB/c nude mouse subcutaneously injected with human Huh-7 cells assessed as changes in kidney tissue at 10 mg/kg, ip administered once daily measured after 14 days by H and E staining based assay; assay type: organism-based; conditions: in vivo, 336 h, time 14 day
SK-HEP1 [2] = test: Induction of apoptosis in human SK-HEP1 cells assessed as viable cells at 20 nM measured after 24 hrs by Annexin-V-FITC/PI analysis (reference value: 97.20%); assay type: functional; conditions: read-out: Activity
SK-HEP1 [3] = test: Induction of apoptosis in human SK-HEP1 assessed as loss of mitochondrial membrane potential by measuring JC-1 stained cells at 40 nM measured after 24 hrs by JC-1 staining based flow cytometry (reference value: 0.49%); assay type: functional
Huh-7 [4] = test: Induction of cell cycle arrest in human Huh-7 cells assessed as accumulation of cells at G2 phase 40 nM measured after 24 hrs by flow cytometric assay (reference value: 13.66%); assay type: functional
[5] = Toxicity in BALB/c nude mouse subcutaneously injected with human Huh-7 cells assessed as change in platelet level at 10 mg/kg, ip administered once daily measured after 14 days; assay type: organism-based; conditions: in vivo, 336 h, time 14 day
[6] = Tmax in Sprague-Dawley rat at 10 mg/kg, ip measured upto 24 hrs by LC-MS/MS analysis; assay type: ADME, organism-based; conditions: in vivo
Huh-7 [7] = test: Induction of apoptosis in human Huh-7 cells assessed as late apoptotic cells at 80 nM measured after 24 hrs by Annexin-V-FITC/PI analysis (reference value: 1.23%); assay type: functional
Huh-7 [8] = test: Inhibition of cell invasion in human Huh-7 cells assessed as decrease in number of cells migration into lower compartment at 10 nM measured after 24 hrs by transwell assay; assay type: functional, cell-based
[9] = Toxicity in BALB/c nude mouse subcutaneously injected with human Huh-7 cells assessed as animal death at 10 to 20 mg/kg, ip administered once daily measured after 14 days; assay type: organism-based; conditions: in vivo, 336 h, dose 10-20 mg/kg, time 14 day
SK-HEP1 [10] = test: Induction of apoptosis in human SK-HEP1 cells assessed as late apoptotic cells at 80 nM measured after 24 hrs by Annexin-V-FITC/PI analysis (reference value: 0.64%); assay type: functional
Huh-7 [11] = test: Antiproliferative activity against human Huh-7 cells assessed as inhibition of cell proliferation incubated for 72 hrs by MTT assay; assay type: functional, cell-based; conditions: Huh-7, 72 h
SK-HEP1 [12] = test: Induction of cell cycle arrest in human SK-HEP1 cells assessed as accumulation of cells at G1 phase 40 nM measured after 24 hrs by flow cytometric assay (reference value: 47.55%); assay type: functional
[13] = Toxicity in BALB/c nude mouse subcutaneously injected with human Huh-7 cells assessed as change in body weight at 40 mg/kg, ip administered once other day measured after 14 days; assay type: organism-based; conditions: in vivo, 336 h, time 14 day
SK-HEP1 [14] = test: Induction of apoptosis in human SK-HEP1 cells assessed as loss of mitochondrial membrane potential by measuring JC-1 stained cells at 80 nM measured after 24 hrs by JC-1 staining based flow cytometry (reference value: 0.49%); assay type: functional
[15] = Toxicity in BALB/c nude mouse subcutaneously injected with human Huh-7 cells assessed as animal death at 40 mg/kg, ip administered once daily measured after 14 days; assay type: organism-based; conditions: in vivo, 336 h, time 14 day
SK-HEP1 [16] = test: Induction of apoptosis in human SK-HEP1 cells assessed as late apoptotic cells at 40 nM measured after 24 hrs by Annexin-V-FITC/PI analysis (reference value: 0.64%); assay type: functional
Huh-7 [17] = test: Inhibition of cell invasion in human Huh-7 cells assessed as decrease in number of cells migration into lower compartment at 20 nM measured after 24 hrs by transwell assay; assay type: functional, cell-based
[18] = Cmax in Sprague-Dawley rat at 10 mg/kg, ip measured upto 24 hrs by LC-MS/MS analysis; assay type: ADME, organism-based; conditions: in vivo
Huh-7 [19] = test: Induction of cell cycle arrest in human Huh-7 cells assessed as accumulation of cells at G1 phase 40 nM measured after 24 hrs by flow cytometric assay (reference value: 63.01%); assay type: functional
[20] = Toxicity in BALB/c nude mouse subcutaneously injected with human Huh-7 cells assessed as changes in heart tissue at 10 mg/kg, ip administered once daily measured after 14 days by H and E staining based assay; assay type: organism-based; conditions: in vivo, 336 h, time 14 day
Huh-7 [21] = test: Induction of apoptosis in human Huh-7 cells assessed as early apoptotic cells at 80 nM measured after 24 hrs by Annexin-V-FITC/PI analysis (reference value: 1.04%); assay type: functional
SK-HEP1 [22] = test: Induction of cell cycle arrest in human SK-HEP1 cells assessed as accumulation of cells at G1 phase 20 nM measured after 24 hrs by flow cytometric assay (reference value: 47.55%); assay type: functional
Huh-7 [23] = test: Induction of apoptosis in human Huh-7 cells assessed as late apoptotic cells at 40 nM measured after 24 hrs by Annexin-V-FITC/PI analysis (reference value: 1.23%); assay type: functional
[24] = Antiproliferative activity against human Doxorubicin-resistant SMMC-7721 cell assessed as inhibition of cell proliferation incubated for 72 hrs by MTT assay; assay type: functional, cell-based; conditions: SMMC-7721, 72 h
SK-HEP1 [25] = test: Inhibition of cell invasion in human SK-HEP1 cells assessed as decrease in number of cells migration into lower compartment at 20 nM measured after 24 hrs by transwell assay; assay type: functional, cell-based
Huh-7 [26] = test: Induction of cell cycle arrest in human Huh-7 cells assessed as accumulation of cells at G1 phase 80 nM measured after 24 hrs by flow cytometric assay (reference value: 63.01%); assay type: functional
Huh-7 [27] = test: Inhibition of cell migration in human Huh-7 cells at 20 nM measured for 24 hrs by scratch wound healing assay; assay type: functional, cell-based
[28] = Toxicity in BALB/c nude mouse subcutaneously injected with human Huh-7 cells assessed as change in body weight at 40 mg/kg, ip administered once daily measured after 14 days; assay type: organism-based; conditions: in vivo, 336 h, time 14 day
[29] = Toxicity in BALB/c nude mouse subcutaneously injected with human Huh-7 cells assessed as change in red blood cells at 10 mg/kg, ip administered once daily measured after 14 days; assay type: organism-based; conditions: in vivo, 336 h, time 14 day
Huh-7 [30] = test: Induction of apoptosis in human Huh-7 cells assessed as early apoptotic cells at 40 nM measured after 24 hrs by Annexin-V-FITC/PI analysis (reference value: 1.04%); assay type: functional
SK-HEP1 [31] = test: Induction of apoptosis in human SK-HEP1 cells assessed as necrotic cells at 40 nM measured after 24 hrs by Annexin-V-FITC/PI analysis (reference value: 0.70%); assay type: functional
SK-HEP1 [32] = test: Induction of apoptosis in human SK-HEP1 cells assessed as necrotic cells at 20 nM measured after 24 hrs by Annexin-V-FITC/PI analysis (reference value: 0.70%); assay type: functional
SK-HEP1 [33] = test: Induction of apoptosis in human SK-HEP1 cells assessed as necrotic cells at 80 nM measured after 24 hrs by Annexin-V-FITC/PI analysis (reference value: 0.70%); assay type: functional
Huh-7 [34] = test: Induction of apoptosis in human Huh-7 cells assessed as necrotic cells at 80 nM measured after 24 hrs by Annexin-V-FITC/PI analysis (reference value: 0.27%); assay type: functional
NCI-H1703 = test: Antiproliferative activity against human NCI-H1703 cells assessed as decrease in EdU positive cells measured after 24 hrs by Edu incorporation based fluorescence microscopic analysis; assay type: functional, cell-based; conditions: dose 10-40 nM

C[N+](C)(C)CCC(=O)Oc1ccc2[nH]c3c(c2c1)CCN1C(=O)c2cc(F)cc(F)c2N(c2cccc(F)c2)C31.[I-] (stereo not given)
Activity [1]: Non-Toxic | viability at 0.02 µM (SK-HEP1 [2]): 97.2% | Activity (SK-HEP1 [3]): 1.49% | Activity (Huh-7 [4]): 11.72% | Activity [5]: Non-Toxic | Tmax [6]: 1.67 h | Activity (Huh-7 [7]): 11.64% | inhibition (Huh-7 [8]): Active | Activity [9]: Non-Toxic | Activity (SK-HEP1 [10]): 11.59% | IC50 (Huh-7 [11]): 40 nM | Activity (SK-HEP1 [12]): 43.86% | Activity [13]: Non-Toxic | Activity (SK-HEP1 [14]): 18.32% | Activity [15]: Toxic | Activity (SK-HEP1 [16]): 1.31% | inhibition (Huh-7 [17]): Active | Cmax [18]: 240 ng/mL | Activity (Huh-7 [19]): 66.98% | Activity [20]: Non-Toxic | Activity (Huh-7 [21]): 7.8% | Activity (SK-HEP1 [22]): 47.61% | Activity (Huh-7 [23]): 2.89% | IC50 [24]: 110 nM | inhibition (SK-HEP1 [25]): Active | Activity (Huh-7 [26]): 6.79% | inhibition (Huh-7 [27]): Active | Activity [28]: Toxic | Activity [29]: Non-Toxic | Activity (Huh-7 [30]): 2.84% | Activity (SK-HEP1 [31]): 0.49% | Activity (SK-HEP1 [32]): 0.47% | Activity (SK-HEP1 [33]): 1.15% | Activity (Huh-7 [34]): 0.83% | Activity (NCI-H1703): Dose-Dependent Effect
